From US20230398119A1, “COMBINATION THERAPY INVOLVING DIARYL MACROCYCLIC COMPOUNDS” (TURNING POINT THERAPEUTICS, INC., priority 2019, published 2023)

Assays:
Panc 05.04 = assay: Pancreatic Cancer Cell Viability Assay; assay type: cell-based; conditions: Homo sapiens; Panc 05.04, KRAS G12D; single agent
Protocol: (§1) Cell proliferation was measured using CellTiter-Glo luciferase-based ATP detection assay (Promega) following the manufacturer's protocol. IC50 determinations were performed using GraphPad Prism software (GraphPad, Inc., San Diego, CA).

Panc 03.27 = assay: Pancreatic Cancer Cell Viability Assay; assay type: cell-based; conditions: Homo sapiens, PANC-03-27; Panc 03.27, KRAS G12V; single agent
Protocol: as §1

MIAPACA-2 = assay: Pancreatic Cancer Cell Viability Assay; assay type: cell-based; conditions: Homo sapiens, MIA PaCa-2; MIAPACA-2, KRAS G12C; single agent
Protocol: as §1

NCI-H2122 cells = assay: Caspase-Glo 3/7 apoptosis assay; assay type: cell-based, human; conditions: NCI-H2122 KRAS G12C; single agent; 48 hours; Compound 1 1 μM, trametinib 50 nM
Protocol: (§2) Two thousand cells per well were seeded in 384 well white plate, and then treated with compounds for 24 or 48 hours (37° C., 5% CO2). Cell caspase-3/7 activity, a major hallmark of apoptosis, was measured using Caspase-Glo® 3/7 detection assay (Promega) following the manufactures's protocol.

NCI-H358 cells = assay: Caspase-Glo 3/7 apoptosis assay; assay type: cell-based, human; conditions: NCI-H358 KRAS G12C; single agent; 48 hours; Compound 1 1 μM, trametinib 50 nM
Protocol: as §2

NCI-H1944 = assay: NSCLC Cell Viability Assay; assay type: cell-based; conditions: Homo sapiens; NCI-H1944, KRAS G13D; single agent
Protocol: (§3) Cell proliferation was measured using CellTiter-Glo luciferase-based ATP detection assay (Promega) following the manufactures's protocol. IC50 determinations were performed using GraphPad Prism software (GraphPad, Inc., San Diego, CA).

NCI-H727 = assay: NSCLC Cell Viability Assay; assay type: cell-based; conditions: Homo sapiens; NCI-H727, KRAS G12V; single agent
Protocol: as §3

NCI-H1373 = assay: NSCLC Cell Viability Assay; assay type: cell-based; conditions: Homo sapiens; NCI-H1373, KRAS G12C; single agent
Protocol: as §3

A549 = assay: NSCLC Cell Viability Assay; assay type: cell-based; conditions: Homo sapiens; A549, KRAS G12S; single agent
Protocol: as §3

NCI-H441 = assay: NSCLC Cell Viability Assay; assay type: cell-based; conditions: Homo sapiens; NCI-H441, KRAS G12V; single agent
Protocol: as §3

Calu-1 = assay: NSCLC Cell Viability Assay; assay type: cell-based; conditions: Homo sapiens; Calu-1, KRAS G12C; single agent
Protocol: as §3

HCC1588 = assay: NSCLC Cell Viability Assay; assay type: cell-based; conditions: Homo sapiens; HCC1588, KRAS G12D; single agent
Protocol: as §3

NCI-H2009 = assay: NSCLC Cell Viability Assay; assay type: cell-based; conditions: Homo sapiens; NCI-H2009, KRAS G12A; single agent
Protocol: as §3

NCI-H23 = assay: NSCLC Cell Viability Assay; assay type: cell-based; conditions: Homo sapiens; NCI-H23, KRAS G12C; single agent
Protocol: as §3

NCI-H1792 = assay: NSCLC Cell Viability Assay; assay type: cell-based; conditions: Homo sapiens; NCI-H1792, KRAS G12C; single agent
Protocol: as §3

COR-L23 = assay: NSCLC Cell Viability Assay; assay type: cell-based; conditions: Homo sapiens; COR-L23, KRAS G12V; single agent
Protocol: as §3

Calu-6 = assay: NSCLC Cell Viability Assay; assay type: cell-based; conditions: Homo sapiens; Calu-6, KRAS Q61K; single agent
Protocol: as §3

LU2512 = assay: NSCLC Cell Viability Assay; assay type: cell-based; conditions: Homo sapiens; LU2512, KRAS G12C; single agent
Protocol: as §3

NCI-H460 = assay: NSCLC Cell Viability Assay; assay type: cell-based; conditions: Homo sapiens; NCI-H460, KRAS Q61H; single agent
Protocol: as §3

DV-90 = assay: NSCLC Cell Viability Assay; assay type: cell-based; conditions: Homo sapiens; DV-90, KRAS G13D; single agent
Protocol: as §3

SK-LU-1 = assay: NSCLC Cell Viability Assay; assay type: cell-based; conditions: Homo sapiens; SK-LU-1, KRAS G12D; single agent
Protocol: as §3

SW1573 = assay: NSCLC Cell Viability Assay; assay type: cell-based; conditions: Homo sapiens; SW1573, KRAS G12C; single agent
Protocol: as §3

A-427 = assay: NSCLC Cell Viability Assay; assay type: cell-based; conditions: Homo sapiens; A-427, KRAS G12D; single agent
Protocol: as §3

NCI-H2122 = assay: NSCLC Cell Viability Assay; assay type: cell-based; conditions: Homo sapiens; NCI-H2122, KRAS G12C; single agent
Protocol: as §3

LCLC-97TM1 = assay: NSCLC Cell Viability Assay; assay type: cell-based; conditions: Homo sapiens; LCLC-97TM1, KRAS G12V; single agent
Protocol: as §3

SW900 = assay: NSCLC Cell Viability Assay; assay type: cell-based; conditions: Homo sapiens; SW900, KRAS G12V; single agent
Protocol: as §3

| Structure (SMILES) | IC50 (Panc 05.04) [nM] | IC50 (Panc 03.27) [nM] | IC50 (MIAPACA-2) [nM] | caspase-3/7 activity (NCI-H2122 cells) | caspase-3/7 activity (NCI-H358 cells) | IC50 (NCI-H1944) [nM] | IC50 (NCI-H727) [nM] | IC50 (NCI-H1373) [nM] | IC50 (A549) [nM] | IC50 (NCI-H441) [nM] | IC50 (Calu-1) [nM] | IC50 (HCC1588) [nM] | IC50 (NCI-H2009) [nM] | IC50 (NCI-H23) [nM] | IC50 (NCI-H1792) [nM] | IC50 (COR-L23) [nM] | IC50 (Calu-6) [nM] | IC50 (LU2512) [nM] | IC50 (NCI-H460) [nM] | IC50 (DV-90) [nM] | further results |
| --- | --- | --- | --- | --- | --- | --- | --- | --- | --- | --- | --- | --- | --- | --- | --- | --- | --- | --- | --- | --- | --- |
| C[C@H]1CNC(=O)c2cnn3ccc(nc23)N[C@H](C)c2cc(F)ccc2O1 [Compound 1, (7S,13R)-11-fluoro-7,13-dimethyl-6,7,13,14-tetrahydro-1,15-ethenopyrazolo[4,3-f][1,4,8,10]benzoxatriazacyclotridecin-4(5H)-one] | 1020 | 1180 | 1130 | modest increases | modest increases | 2620 | 4530 | 4200 | 1360 | 5210 | 2300 | 820 | 2280 | 3420 | 1320 | 2200 | 1470 | 2500 | 1220 | 7270 | IC50 (SK-LU-1): 950 nM; IC50 (SW1573): 2590 nM; IC50 (A-427): 830 nM; IC50 (NCI-H2122): 1160 nM; IC50 (LCLC-97TM1): 930 nM; IC50 (SW900): 2080 nM |
| CC(=O)Nc1cccc(-n2c(=O)n(C3CC3)c(=O)c3c(Nc4ccc(I)cc4F)n(C)c(=O)c(C)c32)c1 [Trametinib, N-(3-{3-cyclopropyl-5-[(2-fluoro-4-iodophenyl)amino]-6,8-dimethyl-2,4,7-trioxo-3,4,6,7-tetrahydropyrido[4,3-d]pyrimidin-1(2H)-yl}phenyl)acetamide] | 20 | 1480 | 20 | increased | increased | > 10000 | 3 | > 10000 | 55 | > 10000 | > 10000 | > 10000 | > 10000 | 63 | 51 | 164 | 12 | 2530 | 70 | 14 | IC50 (SK-LU-1): > 10000 nM; IC50 (SW1573): > 10000 nM; IC50 (A-427): 60 nM; IC50 (NCI-H2122): 10 nM; IC50 (LCLC-97TM1): 344 nM; IC50 (SW900): 74 nM |
